GI50 and TGI data for twelve compounds are collected here from PubChem BioAssay (NCI).

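Following 48 hours of exposure in 96-well plates, responses at five concentrations were used to interpolate endpoints linearly. GI50 = concentration required for 50% inhibition of growth. TGI: total growth inhibition.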

Some test systems named below: ACHN renal; DU-145 prostate; HL-60(TB) leukemia; MCF7 breast; MDA-MB-435; PC-3 prostate; T-47D breast.
Common to all, as to test: NCI tumour cell line growth inhibition, 48 h

Turning to `Clc1cccc(Cl)c1C1CSc2ccccc2N=C1c1ccccc1` (stereo not drawn), the GI50 in the assay on ACHN renal was 2.45 µM; with DU-145 prostate it was 5.74 µM; in the assay with HL-60(TB) leukemia it was 8.2 µM; with MCF7 breast, 0.595 µM; with MDA-MB-435, 3.59 µM; in the assay on PC-3 prostate it was 5.6 µM. In addition, the GI50 with T-47D breast is 8.39 µM. For the same compound, the TGI is 7.3 µM in the assay with ACHN renal; 18.3 µM in the assay with DU-145 prostate; 38.7 µM in the assay on HL-60(TB) leukemia; 11.6 µM in the assay with MCF7 breast; 13.6 µM in the assay with MDA-MB-435; 20.9 µM with PC-3 prostate. The TGI in the assay with T-47D breast came out at 34.5 µM.
As to `c1cc2[nH]ncc2cc1-c1nc2ccc3[nH]ncc3c2c2c1CCCC2`, the GI50 in the assay on ACHN renal is 0.583 µM; with DU-145 prostate it was 2.27 µM; with HL-60(TB) leukemia, 0.512 µM; in the assay with MCF7 breast, 0.736 µM; in the assay with MDA-MB-435 it was 0.315 µM; in the assay on PC-3 prostate, 1.44 µM. Besides, in the assay on T-47D breast, the GI50 was 2.02 µM. For the same compound, the TGI with ACHN renal is 10.7 µM; with DU-145 prostate, 11.2 µM; in the assay with HL-60(TB) leukemia, 3.09 µM; in the assay with MCF7 breast, 11.2 µM; with MDA-MB-435 it was 3.74 µM; in the assay on PC-3 prostate it was 21.5 µM. The compound further registered a TGI with T-47D breast of 12.3 µM.
For `C[C@H](Nc1ncnc2nc[nH]c12)c1cc2ccc(F)cc2nc1-c1ccccn1`, the GI50 was 47.9 µM in the assay on ACHN renal; over 100 µM in the assay on DU-145 prostate; 30.3 µM in the assay with HL-60(TB) leukemia; 28.4 µM with MCF7 breast; over 100 µM with MDA-MB-435; 25 µM in the assay with PC-3 prostate. For the same compound, the GI50 in the assay with T-47D breast is 17.2 µM. Besides, the TGI with ACHN renal, in the assay with DU-145 prostate, with HL-60(TB) leukemia, with MCF7 breast, in the assay with MDA-MB-435 and in the assay on PC-3 prostate was over 100 µM in each case. The TGI with T-47D breast was 99.5 µM.
As to `O=C(CN(/C=C/C(=O)C(F)(F)F)c1ccc(Cl)cc1)c1ccccc1`, the GI50 was 13.7 µM in the assay with ACHN renal; 18 µM in the assay with DU-145 prostate; 17.3 µM with HL-60(TB) leukemia; over 100 µM with MCF7 breast; 10.8 µM with MDA-MB-435; 17 µM in the assay on PC-3 prostate. Also, the GI50 in the assay with T-47D breast is 4.08 µM. In addition, the TGI was 28.9 µM in the assay with ACHN renal; 43.4 µM in the assay with DU-145 prostate; 66.7 µM with HL-60(TB) leukemia; over 100 µM in the assay on MCF7 breast; 39 µM with MDA-MB-435; 35.3 µM with PC-3 prostate. In the assay on T-47D breast, the TGI was over 100 µM.
`Cc1ccccc1-n1ncc(C(=O)c2ccccc2)c1N`: the GI50 in the assay with ACHN renal, with DU-145 prostate, in the assay with HL-60(TB) leukemia, in the assay with MCF7 breast, with MDA-MB-435 and in the assay with PC-3 prostate was over 25 µM throughout. For the same compound, the GI50 in the assay on T-47D breast was over 25 µM. Besides, the TGI in the assay with ACHN renal, in the assay on DU-145 prostate, with HL-60(TB) leukemia, with MCF7 breast, in the assay on MDA-MB-435 and in the assay on PC-3 prostate was over 25 µM in each case. Moreover, the TGI with T-47D breast is over 25 µM.
`O=C1c2nsnc2C(=O)c2c(F)c(F)c(F)c(F)c21`: the GI50 is 0.501 µM in the assay with ACHN renal; 1.32 µM in the assay with DU-145 prostate; 0.591 µM in the assay with HL-60(TB) leukemia; 0.398 µM in the assay with MCF7 breast; 0.846 µM in the assay with MDA-MB-435; 1.51 µM in the assay on PC-3 prostate. Further, the GI50 with T-47D breast is 0.473 µM. For the same compound, the TGI with ACHN renal came to 1.2 µM; in the assay with DU-145 prostate, 2.63 µM; in the assay on HL-60(TB) leukemia, 2.73 µM; in the assay with MCF7 breast it was 2.19 µM; with MDA-MB-435 it was 2.14 µM; in the assay with PC-3 prostate, 3.1 µM. Further, the TGI in the assay on T-47D breast was determined as 2.37 µM.
Turning to `COc1ccc(C(SCC(N)C(=O)O)(c2ccccc2)c2ccccc2)cc1` (stereo not drawn), the GI50 in the assay on ACHN renal was 3.73 µM; with DU-145 prostate it was 0.272 µM; in the assay on HL-60(TB) leukemia, 0.136 µM; in the assay with MCF7 breast it was 0.0385 µM; in the assay with MDA-MB-435, 0.0306 µM; in the assay on PC-3 prostate, 0.185 µM. In addition, in the assay with T-47D breast, the GI50 is 0.409 µM. Moreover, the TGI in the assay with ACHN renal is over 100 µM; in the assay with DU-145 prostate, 0.7 µM; with MCF7 breast, over 100 µM; in the assay with PC-3 prostate it was over 100 µM; in the assay on T-47D breast, over 100 µM.
As to `C[C@]12CC[C@H](O)C[C@H]1CC[C@@H]1[C@@H]2CC[C@]2(C)[C@@H](C3=CC(=O)OC3)[C@@H](O)C[C@]12O`, the TGI was determined as 1.82 µM in the assay on ACHN renal; 2.71 µM in the assay on DU-145 prostate; 3.45 µM in the assay with HL-60(TB) leukemia; 11.1 µM with MCF7 breast; 10.3 µM in the assay on MDA-MB-435; 3.1 µM with PC-3 prostate. The TGI in the assay with T-47D breast is over 40.7 µM.
`CNC(=O)OCc1c2ccncc2c(C)c2c1[nH]c1ccccc12`: the TGI is 0.522 µM in the assay on ACHN renal; 6.18 µM in the assay on DU-145 prostate; 0.92 µM in the assay with HL-60(TB) leukemia; 1.24 µM in the assay with MCF7 breast; 1.58 µM in the assay with MDA-MB-435; 20.7 µM with PC-3 prostate. In addition, in the assay with T-47D breast, the TGI is 9.61 µM.
For the compound `COc1cc(OC)c(/C=C\c2ccnc3ccccc23)c(OC)c1`, the TGI with ACHN renal stood at 17.5 µM; with DU-145 prostate, 17.2 µM; in the assay with HL-60(TB) leukemia, 0.963 µM; in the assay with MCF7 breast, 21.4 µM; with MDA-MB-435, 1.78 µM; in the assay on PC-3 prostate it was 23 µM. In addition, in the assay with T-47D breast, the TGI came out at 15.6 µM.
With `C=CC(C1=CC(=O)C(OC)=CC1=O)c1ccccc1` (stereo not drawn), the TGI was 27.4 µM in the assay with ACHN renal; 30.2 µM with DU-145 prostate; 6.72 µM with HL-60(TB) leukemia; 26.2 µM with MCF7 breast; 28.3 µM in the assay with MDA-MB-435; 25.7 µM with PC-3 prostate. Moreover, the TGI in the assay with T-47D breast is 8.9 µM.
With `Cl.Fc1c[c-]c(-c2ccccn2)c(F)c1.[Pt].c1ccc(P(c2ccccc2)C([PH+](c2ccccc2)c2ccccc2)[PH+](c2ccccc2)c2ccccc2)cc1`, the GI50 with ACHN renal was 3.05 µM; in the assay on DU-145 prostate it was 3.57 µM; in the assay on HL-60(TB) leukemia it was 1.95 µM; in the assay with MCF7 breast it was 2.95 µM; with MDA-MB-435 it was 3.4 µM; in the assay on PC-3 prostate it was 2.17 µM. Moreover, in the assay with T-47D breast, the GI50 is 2.25 µM. The TGI with ACHN renal is over 100 µM; in the assay on DU-145 prostate it was 20.1 µM; in the assay on HL-60(TB) leukemia, 6.07 µM; with MCF7 breast, over 100 µM; in the assay on MDA-MB-435, 16 µM; with PC-3 prostate, over 100 µM. The compound further showed a TGI in the assay on T-47D breast of 8.5 µM.
